The supplement of paper PMC13380429

Legend:
[1] = tested on: A549-ACE2 infected with SARS-CoV-2; assay: cell count relative to DMSO; higher = less toxic; settings: 24 h
Caco-2 [2] = assay: cell viability relative to DMSO; higher = less toxic; settings: 72 h
HepG2 [3] = assay: as above; settings: 72 h
U2OS [4] = assay: as above; settings: 72 h
Vero E6 [5] = assay: as above; settings: 72 h
[6] = tested on: A549-ACE2 infected with SARS-CoV-2; assay: SARS-CoV-2 infection rate relative to DMSO; higher = more infection; settings: 24 h
A549-ACE2 [7] = assay: phospholipidosis EC50; higher = less potent phospholipidosis inducer
A549-ACE2 [8] = assay: drug-induced phospholipidosis relative to tamoxifen; higher = more phospholipidosis
[9] = tested on: A549-ACE2 infected with SARS-CoV-2; assay: morphology score (similarity to uninfected cells); higher = more like uninfected cells; settings: 24 h
Caco-2 [10] = assay: relative viability EC50 (midpoint between 100% and the lowest measured viability); higher = less toxic; settings: 72 h
HepG2 [11] = assay: as above; settings: 72 h
U2OS [12] = assay: as above; settings: 72 h
Vero E6 [13] = assay: as above; settings: 72 h
Caco-2 [14] = assay: drug sensitivity score (DSS) for viability; higher = more toxic; extreme values may be limits of the assay; settings: 72 h
HepG2 [15] = assay: as above; settings: 72 h
U2OS [16] = assay: as above; settings: 72 h
Vero E6 [17] = assay: as above; settings: 72 h
Calu-3 [18] = assay: cell viability relative to DMSO; higher = less toxic; settings: 72 h
Calu-3 [19] = assay: relative viability EC50 (midpoint between 100% and the lowest measured viability); higher = less toxic; settings: 72 h
Calu-3 [20] = assay: drug sensitivity score (DSS) for viability; higher = more toxic; extreme values may be limits of the assay; settings: 72 h

O=C(c1ccc(Nc2nccc(-c3cc4ccccc4s3)n2)cc1)N1CCC(N2CCCC2)CC1 [IKK-16]
Settings	SARS-CoV-2 infection rate [%]	cell count [%]	cell viability [%]	morphology score	phospholipidosis EC50 [nM]
A549-ACE2 [7], 24 h	–	–	–	–	1050
A549-ACE2 [7], 48 h	–	–	–	–	1530
A549-ACE2 [7], 72 h	–	–	–	–	1100
Caco-2 [2], 1 nM	–	–	97.6	–	–
Caco-2 [2], 10 nM	–	–	102	–	–
Caco-2 [2], 100 nM	–	–	98.9	–	–
Caco-2 [2], 1000 nM	–	–	79.8	–	–
Caco-2 [2], 10000 nM	–	–	9.4	–	–
HepG2 [3], 1 nM	–	–	95.9	–	–
HepG2 [3], 10 nM	–	–	108	–	–
HepG2 [3], 100 nM	–	–	91.6	–	–
HepG2 [3], 1000 nM	–	–	86.9	–	–
HepG2 [3], 10000 nM	–	–	-0.2	–	–
U2OS [4], 1 nM	–	–	97.4	–	–
U2OS [4], 10 nM	–	–	95.5	–	–
U2OS [4], 100 nM	–	–	97.6	–	–
U2OS [4], 1000 nM	–	–	91.7	–	–
U2OS [4], 10000 nM	–	–	0.8	–	–
Vero E6 [5], 1 nM	–	–	97.4	–	–
Vero E6 [5], 10 nM	–	–	99.5	–	–
Vero E6 [5], 100 nM	–	–	99.5	–	–
Vero E6 [5], 1000 nM	–	–	97.6	–	–
Vero E6 [5], 10000 nM	–	–	-0.2	–	–
[1], 0.1 µM	–	102	–	–	–
[1], 0.3 µM	–	93	–	–	–
[1], 1 µM	–	111	–	–	–
[1], 3 µM	–	109	–	–	–
[6], 0.1 µM	101	–	–	–	–
[6], 0.3 µM	104	–	–	–	–
[6], 1 µM	62	–	–	–	–
[6], 3 µM	19	–	–	–	–
[9], 0.1 µM	–	–	–	-0.12	–
[9], 0.3 µM	–	–	–	-0.2	–
[9], 1 µM	–	–	–	0.57	–
[9], 3 µM	–	–	–	0.49	–

drug-induced phospholipidosis [%], A549-ACE2 [8]
Settings	0.3 µM	0.833333 µM	3.33333 µM	6.66667 µM	10 µM	30 µM
24 h	-2.91	8.17	163	140	179	55.6
48 h	-0.02	5.69	114	107	125	–
72 h	0.998	5.79	108	91.2	–	–

Settings	drug sensitivity score	relative viability EC50 [nM]
Caco-2 [10]	–	1640
Caco-2 [14]	8.2	–
HepG2 [11]	–	2100
HepG2 [15]	7.7	–
U2OS [12]	–	2480
U2OS [16]	6.8	–
Vero E6 [13]	–	2980
Vero E6 [17]	5.9	–

CC[C@@H](C(=O)[C@@H](C)[C@@H](O)[C@H](C)[C@@H]1O[C@@H]([C@@H](CC)C(=O)O)CC[C@@H]1C)[C@H]1O[C@]2(C=C[C@@H](O)[C@]3(CC[C@@](C)([C@H]4CC[C@](O)(CC)[C@H](C)O4)O3)O2)[C@H](C)C[C@@H]1C [Salinomycin (Procoxacin)]
Settings	SARS-CoV-2 infection rate, [6] [%]	cell count, [1] [%]	cell viability, Caco-2 [2] [%]	cell viability, Calu-3 [18] [%]	cell viability, HepG2 [3] [%]	cell viability, U2OS [4] [%]	cell viability, Vero E6 [5] [%]	morphology score, [9]
1 nM	–	–	100	87.9	121	100	109	–
10 nM	–	–	98.7	91.4	108	105	103	–
100 nM	–	–	69.5	80.6	103	89.2	104	–
0.3 µM	28	118	–	–	–	–	–	0.84
1000 nM	–	–	38.3	53.1	36.6	68.7	70.1	–
3 µM	19	110	–	–	–	–	–	0.8
10 µM	26	116	–	–	–	–	–	0.51
10000 nM	–	–	17.3	26.5	25.3	22.6	44.7	–
30 µM	54	101	–	–	–	–	–	0

drug-induced phospholipidosis [%], A549-ACE2 [8]
Settings	0.3 µM	0.833333 µM	3.33333 µM	6.66667 µM	10 µM	30 µM
24 h	2.06	-1.22	-9.27	4.33	16.4	32
48 h	3.07	-6.1	-3.84	10.2	–	–
72 h	12.7	–	–	–	–	–

Settings	drug sensitivity score	relative viability EC50 [nM]
Caco-2 [10]	–	224
Caco-2 [14]	15.4	–
Calu-3 [19]	–	360
Calu-3 [20]	11.6	–
HepG2 [11]	–	513
HepG2 [15]	11.6	–
U2OS [12]	–	1230
U2OS [16]	7.8	–
Vero E6 [13]	–	939
Vero E6 [17]	6.7	–
